This passage reports IC50 and GI50 results from patent US20240116921A1, “LACTAM (HETERO)[…] DERIVATIVES AS INHIBITORS OF ERBB2” (EnLiven Therapeutics, Inc., priority 2020, published 2024).

As a reminder, the IC50 is the concentration at which inhibition is half-maximal. High values mean lower potency, low ones higher potency.

For assay [1], the target named is T1, phosphorylated EGFR (pEGFR) (Homo sapiens, UniProt P00533).
T1 construct: performed to measure phosphorylated EGFR levels using A431 cells (10% FBS); endogenous in cells; host or cells: A431
Nature of the assay: Detection of phosphorylated EGFR (pEGFR) in EGF-stimulated A431 cells. It counts as cell-based. The note with it: A431 cells (10% FBS), 4 hours incubation, EGF 30 ng/mL 10 minutes, AlphaLISA. On the procedure:
Enzyme-linked immunosorbent assays (ELISA) were performed to measure phosphorylated EGFR levels using A431 cells (10% FBS). A431 (1.0*10^4 cells/40 μl/well) cells were seeded in 384 well. Compounds were dissolved in DMSO, serially diluted in DMSO and then were added, mixed, and incubated for 4 hours at 37° C., 5% CO2. Following the 4-hours incubation, cells were stimulated for 10 minutes with EGF (Invitrogen, cat #PHG0311) at a final concentration of 30 ng/mL in the incubator. The media was aspirated and cells were lysed in 10 μL lysis buffer with protease and phosphatase inhibitors (PerkinElmer, cat #ALSU-PEGFR-A50K). The plates were placed on a shaker for 5 minutes and then incubated for 30 min at 4° C. for complete lysis. The lysate was transferred to an Optiplate (Perkin Elmer, cat #6007290).
Acceptor mix (PerkinElmer, cat #ALSU-PEGFR-A50K) was prepared just before use and 5 μL was dispensed to all the wells, followed by a 1.5-2 h incubation at room temperature in dark. The donor mix (PerkinElmer, cat #ALSU-PEGFR-A50K) was prepared under low light conditions prior to use and […] of donor mix was added to all the wells under subdued lighting or green filters. The plates were placed on a shaker for 5 min, sealed, and incubated overnight at room temperature in dark. Plates were read on the Envision (PerkinElmer) using standard AlphaLISA settings.
The percentage of inhibition on EGFR phosphorylation was calculated following equation: % Inhibition=100×(LumHC−LumSample)/(LumHC−LumLC). The low and high controls (LC/HC) are generated from lysate from wells with cells treated with DMSO or […] Staurosporine (BioAustralis, cat #BIA-S1086), […]. IC50 values were calculated by fitting the Curve using XLfit (v5.3.1.3), equation 201: Y=Bottom+(Top−Bottom)/(1+10^((Log IC50−X)*HillSlope)).
(In general: In Alpha technology, singlet oxygen from a donor bead excites a nearby acceptor bead.)

The target in assay [2] is T2, phosphorylated ERBB2 (pERBB2) (Homo sapiens, UniProt P04626).
T2 construct: endogenous in cells; host or cells: BT-474
The assay can be described thus: Detection of phosphorylated ERBB2 (pERBB2) by ELISA in BT-474 cells. The class given is cell-based. Conditions: four hours incubation. As for the experimental part: BT-474 cells were seeded into a 96-well at 2.0*10^4 cells/100 μl/well.
Compounds were dissolved and serially diluted in DMSO. The compounds were then were added, mixed, and incubated for four hours at 37° C., 5% CO2. Compounds were added using four-fold dilutions at final concentrations ranging from 10 μM to 0.01 nM.
Following the four hour incubation with compounds, cell lysates were prepared.
Plates were centrifuged for 5 min at 3000 RPM, and supernatant was removed from each well. Cells were washed 3 times by resuspension in 150 μl PBS, followed by centrifugation and removal of the supernatant, as above. […] Cells were incubated with lysis buffer for 1 hour at 4° C., and then stored at −80° C.
Enzyme-linked immunosorbent assays (ELISA) were performed to measure phosphorylated ERBB2 levels. […] The next day, plates were washed with PBS+0.05% Tween20 (PBST). 150 μl of 5% BSA blocking solution was added for 1 hour at room temperature, with shaking. Plates were washed with PBST. Cell lysates were thawed and 100 μl of lysate was added to the ELISA plate. The plates were incubated for 2 hours at room temperature, with shaking. […] Plates were incubated for 1 hour at room temperature, with shaking. Plates were then washed with PBST, and 100 μl TMB substrate solution (R&D Systems, cat #DY999) was added. Plate were incubated in the dark for 20 minutes at room temperature. 50 μl of Stop solution (R&D Systems, cat #DY994) (50 μl) was added to each well and mixed.
Optical density at 450 nm was read on an EnSpire plate reader (Perkin Elmer). The remaining kinase activity by calculated using the following formula: % Relative activity=100×(A450sample−A450LC)/(A450HC−A450LC). The low and high control values (“LC” and “HC”) were generated from lysate from wells without cells or with cells treated with 0.1% DMSO, respectively.
(ELISA stands for enzyme-linked immunosorbent assay.)

The target of assay [3] is Ba/F3 ERBB2 A775_G776insYVMA (Homo sapiens, UniProt P04626, DUP772-775, cells depend on it). Nature of the assay: Cell viability assay, Ba/F3 ERBB2 A775_G776insYVMA. The note with it: Ba/F3 ERBB2 YVMA cells, cell viability, 72 hours, CellTiter Glo; Table B5; read-out: Ba/F3 ERBB2 YVMA, IC50. It counts as cell-based, mouse. On the procedure:
Cells were treated with compounds, and cell viability was measured as a metric of kinase inhibition.
The Ba/F3 cell line is IL-3-dependent mouse cell line derived from the C3H mouse strain. Ba/F3 cell lines were engineered to express human ERBB2 or EGFR kinases, rendering the cells IL-3 independent. The lines were generated via retroviral transduction utilizing a Moloney murine leukemia virus (MMLV) promoter, and constructs are stably integrated into the cell genome. The sequences of the ERBB2 and EGFR genes used were NCBI Reference Sequences NM_004448.3 and NM_005228.3, respectively.
Similarly, Ba/F3 cell lines engineered to express EGFR, ERBB2, or ERBB2 mutants were grown, harvested, counted and seeded at 3000 cells per well in 96-well plates. A subset of wells contained media only (low control, “LC”).
Table B1 provides the growth media and number of cells seeded per well for the each cell line.
Plates were placed in a 37° C., 5% CO2 incubator for 72 hours. Plates were then removed from the incubator and equilibrated for 15 minutes at room temperature. 40 μl of CellTiter Glo reagent (Promega) was added to measure the relative level of metabolically active cells by quantifying intracellular ATP concentrations. Plates were incubated for 30 minutes at room temperature, and luminescence was measured. […] Graphical curves were fitted using a nonlinear regression model with a sigmoidal dose response.
(In general: ATP-based viability assays read luminescence as a measure of living cells.)

Bounds are passed on as bounds.

T2 sequence (P04626 23-1255): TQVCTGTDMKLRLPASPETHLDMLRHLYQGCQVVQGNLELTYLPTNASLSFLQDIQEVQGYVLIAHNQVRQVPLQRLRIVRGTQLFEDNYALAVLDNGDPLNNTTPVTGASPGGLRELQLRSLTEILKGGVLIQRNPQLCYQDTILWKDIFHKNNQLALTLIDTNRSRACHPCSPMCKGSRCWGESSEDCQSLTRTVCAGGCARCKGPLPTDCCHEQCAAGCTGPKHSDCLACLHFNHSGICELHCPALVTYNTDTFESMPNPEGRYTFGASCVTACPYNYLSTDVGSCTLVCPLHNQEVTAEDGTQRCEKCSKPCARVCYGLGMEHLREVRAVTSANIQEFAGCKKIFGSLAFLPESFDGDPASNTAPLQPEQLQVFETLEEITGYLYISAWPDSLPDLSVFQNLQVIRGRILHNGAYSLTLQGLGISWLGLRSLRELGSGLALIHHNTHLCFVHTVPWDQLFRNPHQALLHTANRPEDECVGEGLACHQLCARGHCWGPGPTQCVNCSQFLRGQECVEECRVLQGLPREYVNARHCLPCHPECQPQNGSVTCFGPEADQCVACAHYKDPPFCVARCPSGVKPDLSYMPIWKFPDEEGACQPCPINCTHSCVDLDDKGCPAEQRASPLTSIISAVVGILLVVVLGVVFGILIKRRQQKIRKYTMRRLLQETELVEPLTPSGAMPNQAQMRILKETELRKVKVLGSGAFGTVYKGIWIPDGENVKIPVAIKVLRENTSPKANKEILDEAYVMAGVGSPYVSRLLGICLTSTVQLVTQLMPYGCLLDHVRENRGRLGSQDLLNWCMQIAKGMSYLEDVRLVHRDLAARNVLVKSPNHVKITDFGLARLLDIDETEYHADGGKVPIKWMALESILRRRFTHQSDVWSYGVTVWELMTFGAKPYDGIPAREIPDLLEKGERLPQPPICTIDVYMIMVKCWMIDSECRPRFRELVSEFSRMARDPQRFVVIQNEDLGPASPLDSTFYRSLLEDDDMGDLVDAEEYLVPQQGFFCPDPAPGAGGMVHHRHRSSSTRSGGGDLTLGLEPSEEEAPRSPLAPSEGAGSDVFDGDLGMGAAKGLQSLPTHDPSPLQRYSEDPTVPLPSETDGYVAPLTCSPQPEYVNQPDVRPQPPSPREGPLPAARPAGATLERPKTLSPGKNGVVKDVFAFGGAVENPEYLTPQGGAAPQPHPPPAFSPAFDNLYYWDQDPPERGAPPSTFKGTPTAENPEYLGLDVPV
Ba/F3 ERBB2 A775_G776insYVMA, sequence (P04626 with tags, fused parts or gaps DUP772-775): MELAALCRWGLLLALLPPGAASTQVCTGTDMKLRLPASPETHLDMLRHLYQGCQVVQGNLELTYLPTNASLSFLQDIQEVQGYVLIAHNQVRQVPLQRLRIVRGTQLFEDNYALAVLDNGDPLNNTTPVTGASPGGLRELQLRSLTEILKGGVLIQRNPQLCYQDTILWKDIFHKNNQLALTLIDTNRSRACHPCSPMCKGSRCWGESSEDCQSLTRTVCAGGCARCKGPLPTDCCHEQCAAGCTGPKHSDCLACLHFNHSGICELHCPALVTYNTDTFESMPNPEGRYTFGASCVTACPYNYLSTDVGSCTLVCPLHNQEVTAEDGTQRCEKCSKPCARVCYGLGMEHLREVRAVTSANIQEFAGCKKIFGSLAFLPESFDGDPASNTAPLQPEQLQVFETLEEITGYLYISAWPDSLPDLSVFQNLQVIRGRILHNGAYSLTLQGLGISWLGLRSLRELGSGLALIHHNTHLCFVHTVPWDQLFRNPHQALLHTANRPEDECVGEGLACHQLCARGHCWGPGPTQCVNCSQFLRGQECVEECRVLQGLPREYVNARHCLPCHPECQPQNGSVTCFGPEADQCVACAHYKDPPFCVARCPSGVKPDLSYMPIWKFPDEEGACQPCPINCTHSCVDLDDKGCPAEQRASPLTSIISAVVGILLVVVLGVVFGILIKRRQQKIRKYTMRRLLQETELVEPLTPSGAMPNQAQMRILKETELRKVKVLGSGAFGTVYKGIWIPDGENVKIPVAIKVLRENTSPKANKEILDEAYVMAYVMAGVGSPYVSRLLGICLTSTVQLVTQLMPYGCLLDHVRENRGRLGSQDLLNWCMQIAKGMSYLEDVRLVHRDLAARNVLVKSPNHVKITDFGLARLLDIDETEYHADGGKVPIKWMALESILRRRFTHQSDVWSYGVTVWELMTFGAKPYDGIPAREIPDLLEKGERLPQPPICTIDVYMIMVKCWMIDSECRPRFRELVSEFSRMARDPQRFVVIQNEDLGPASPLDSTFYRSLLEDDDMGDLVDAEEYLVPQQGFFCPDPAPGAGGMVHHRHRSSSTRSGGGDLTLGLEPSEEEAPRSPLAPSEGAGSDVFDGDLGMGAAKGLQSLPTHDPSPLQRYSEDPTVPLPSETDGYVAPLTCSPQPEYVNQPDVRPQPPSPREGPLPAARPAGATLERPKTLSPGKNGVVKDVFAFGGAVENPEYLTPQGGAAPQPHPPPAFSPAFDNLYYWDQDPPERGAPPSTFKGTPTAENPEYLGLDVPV
T1 sequence (P00533 25-1210): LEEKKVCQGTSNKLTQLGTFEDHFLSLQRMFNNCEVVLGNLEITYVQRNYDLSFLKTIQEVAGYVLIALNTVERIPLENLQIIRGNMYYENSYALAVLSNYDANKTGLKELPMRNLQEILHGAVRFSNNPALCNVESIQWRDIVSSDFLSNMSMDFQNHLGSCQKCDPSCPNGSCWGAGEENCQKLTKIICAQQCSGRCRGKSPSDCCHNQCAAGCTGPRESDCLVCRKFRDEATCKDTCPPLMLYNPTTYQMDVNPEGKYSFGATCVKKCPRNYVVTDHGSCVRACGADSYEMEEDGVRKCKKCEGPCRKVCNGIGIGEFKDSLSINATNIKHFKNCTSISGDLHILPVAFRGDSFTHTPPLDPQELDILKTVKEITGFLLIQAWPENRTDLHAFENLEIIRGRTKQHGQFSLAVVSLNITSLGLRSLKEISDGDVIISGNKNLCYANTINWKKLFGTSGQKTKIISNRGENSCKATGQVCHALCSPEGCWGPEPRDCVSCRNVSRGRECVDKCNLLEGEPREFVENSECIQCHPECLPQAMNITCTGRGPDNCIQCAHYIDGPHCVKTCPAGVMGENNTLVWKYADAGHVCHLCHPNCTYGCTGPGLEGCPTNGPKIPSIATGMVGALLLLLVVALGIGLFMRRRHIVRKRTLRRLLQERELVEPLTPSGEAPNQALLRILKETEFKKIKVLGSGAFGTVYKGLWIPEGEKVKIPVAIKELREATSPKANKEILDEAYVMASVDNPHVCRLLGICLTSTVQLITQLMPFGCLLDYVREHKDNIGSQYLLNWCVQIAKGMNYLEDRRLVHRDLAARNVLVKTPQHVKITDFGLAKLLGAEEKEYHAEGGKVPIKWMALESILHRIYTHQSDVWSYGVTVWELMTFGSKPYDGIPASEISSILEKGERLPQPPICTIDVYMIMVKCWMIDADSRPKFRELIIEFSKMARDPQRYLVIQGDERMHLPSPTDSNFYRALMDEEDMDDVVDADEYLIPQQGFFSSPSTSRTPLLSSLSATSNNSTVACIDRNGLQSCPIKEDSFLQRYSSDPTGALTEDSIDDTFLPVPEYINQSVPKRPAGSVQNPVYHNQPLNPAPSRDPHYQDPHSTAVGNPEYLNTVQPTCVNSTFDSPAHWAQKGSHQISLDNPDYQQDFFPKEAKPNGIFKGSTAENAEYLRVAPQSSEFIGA

With `Cc1cc(Nc2ncnc3ccc(N4CCC(=CCN(C)C)C4=O)cc23)ccc1Oc1ccn2ncnc2c1` (single isomer, unassigned) [Compound 17, (Z)-3-[2-(dimethylamino)ethylidene]-1-[4-[(3-methyl-4-[[1,2,4]triazolo[1,5-a]pyridin-7-yloxy]phenyl)amino]quinazolin-6-yl]pyrrolidin-2-one], the IC50 is over 10000 nM in assay [1] and 19.7 nM in assay [2].
Regarding `CC1CN(c2cc3c(Nc4ccc(Oc5ccc6c(c5)nnn6C)cc4)ncnc3cn2)C(=O)/C1=C/CN(C)C` (single isomer, unassigned) [Compound 136], the figures for the IC50 in assay [1] and in assay [2] were 1670 nM and 72.6 nM, respectively. For the same compound, the GI50 in assay [3] stood at 18 nM.
Regarding `CC1CN(c2cc3c(Nc4ccc(Oc5ccc6c(c5)nnn6C)cc4)ncnc3cn2)C(=O)/C1=C/CN(C)C` (single isomer, unassigned) [Compound 137], the half-maximal inhibitory concentration (IC50) in assay [1] is over 10000 nM; in assay [2] it was 4110 nM. Besides, the GI50 in assay [3] came out at 473 nM.
As to `C=C1C(=O)N(c2ccc3ncnc(Nc4ccc(Oc5ccn6ncnc6c5)c(C)c4)c3c2)C2CC12` (single isomer, unassigned) [Example S21, Enantiomer # 1, 2-{4-[(3-methyl-4-{[1,2,4]triazolo[1,5-a]pyridin-7-yloxy}phenyl)amino]quinazolin-6-yl}-4-methylidene-2-azabicyclo[3.1.0]hexan-3-one], the IC50 is 538 nM in assay [1] and 20.8 nM in assay [2].
As for `C=C1C(=O)N(c2ccc3ncnc(Nc4ccc(Oc5ccn6ncnc6c5)c(C)c4)c3c2)C2CC12` (single isomer, unassigned) [Example S21, Enantiomer # 2, 2-{4-[(3-methyl-4-{[1,2,4]triazolo[1,5-a]pyridin-7-yloxy}phenyl)amino]quinazolin-6-yl}-4-methylidene-2-azabicyclo[3.1.0]hexan-3-one], the IC50 in assay [1] stood at 1980 nM; in assay [2], 22.3 nM.
As for `C=C1C(=O)N(c2ccc3ncnc(Nc4ccc(Oc5ccc6c(c5)ncn6C)c(C)c4)c3c2)C2CC12` (single isomer, unassigned) [Example S33, Enantiomer # 1, 2-[4-({3-methyl-4-[(1-methyl-1,3-benzodiazol-5-yl)oxy]phenyl}amino)quinazolin-6-yl]-4-methylidene-2-azabicyclo[3.1.0]hexan-3-one], the concentration for half-maximal inhibition (IC50) in assay [1] stood at 1090 nM; in assay [2], 23.2 nM. Moreover, the GI50 in assay [3] stood at 7.57 nM.
On the same counts, the results for `C=C1C(=O)N(c2ccc3ncnc(Nc4ccc(Oc5ccc6c(c5)ncn6C)c(C)c4)c3c2)C2CC12` (single isomer, unassigned) [Example S33, Enantiomer # 2, 2-[4-({3-methyl-4-[(1-methyl-1,3-benzodiazol-5-yl)oxy]phenyl}amino)quinazolin-6-yl]-4-methylidene-2-azabicyclo[3.1.0]hexan-3-one] are 520 nM, 24.9 nM and 7.6 nM.
On to `C=C1C(=O)N(c2ccc3ncnc(Nc4ccc(Cc5ccn6ncnc6c5)c(C)c4)c3c2)C2CC12` (single isomer, unassigned) [Example S79, Enantiomer #1, 2-(4-((4-([1,2,4]triazolo[1,5-a]pyridin-7-ylmethyl)-3-methylphenyl)amino)quinazolin-6-yl)-4-methylene-2-azabicyclo[3.1.0]hexan-3-one], for which the IC50 in assay [1] amounted to 6100 nM; in assay [2], 36.6 nM. Further, the GI50 in assay [3] was found to be 32.1 nM.
`C=C1C(=O)N(c2ccc3ncnc(Nc4ccc(Cc5ccn6ncnc6c5)c(C)c4)c3c2)C2CC12` (single isomer, unassigned) [Example S79, Enantiomer #2, 2-(4-((4-([1,2,4]triazolo[1,5-a]pyridin-7-ylmethyl)-3-methylphenyl)amino)quinazolin-6-yl)-4-methylene-2-azabicyclo[3.1.0]hexan-3-one]: the figures for the half-inhibitory concentration (IC50) in assay [1] and in assay [2] were 798 nM and 15.3 nM, respectively. Also, in assay [3], the GI50 was 13.7 nM.
Regarding `Cc1cc(Nc2ncnc3cnc(N4CC(C)/C(=C\CN(C)C)C4=O)cc23)ccc1Oc1ccc2c(c1)nnn2C` (single isomer, unassigned) [Example S86, Enantiomer #1, (3E)-3-[2-(dimethylamino)ethylidene]-4-methyl-1-[4-({3-methyl-4-[(1-methyl-1,2,3-benzotriazol-5-yl)oxy]phenyl}amino)pyrido[3,4-d]pyrimidin-6-yl]pyrrolidin-2-one], the IC50 in assay [1] turned out to be 574 nM; in assay [2], 11.5 nM. In assay [3], the GI50 was 2.59 nM.
On to `C=C1CCN(c2ccc3ncnc(Nc4ccc(Sc5ccn6ncnc6c5)c(C)c4)c3c2)C1=O` [Compound 13, 1-[4-[(3-methyl-4-[[1,2,4]triazolo[1,5-a]pyridin-7-ylsulfanyl]phenyl)amino]quinazolin-6-yl]-3-methylidenepyrrolidin-2-one], for which the figures for the half-maximal inhibitory concentration (IC50) in assay [1] and in assay [2] were 571 nM and 12.5 nM, respectively.
For `C=C1C(=O)N(c2ccc3ncnc(Nc4ccc(Oc5ccn6ncnc6c5)c(C)c4)c3c2)C[C@@H]1C` [Compound 19, (R)-1-(4-((4-([1,2,4]triazolo[1,5-a]pyridin-7-yloxy)-3-methylphenyl)amino)quinazolin-6-yl)-4-methyl-3-methylenepyrrolidin-2-one], the IC50 in assay [1] turned out to be 5630 nM; in assay [2], 25.2 nM.
Turning to `C=C1C(=O)N(c2ccc3ncnc(Nc4ccc(Oc5ccn6ncnc6c5)c(C)c4)c3c2)C[C@H]1C` [Compound 20, (S)-1-(4-(4-([1,2,4]triazolo[1,5-a]pyridin-7-yloxy)-3-methylphenylamino)quinazolin-6-yl)-4-methyl-3-methylenepyrrolidin-2-one], the results for the IC50 in assay [1] and in assay [2] were 586 nM and 12 nM, respectively.
On the same counts, the results for `C=C1CCN(c2ccc3ncnc(Nc4ccc(Oc5ccn6ncnc6c5)c(C)c4)c3n2)C1=O` [Compound 23, 1-{4-[(3-methyl-4-{[1,2,4]triazolo[1,5-a]pyridin-7-yloxy}phenyl)amino]pyrido[3,2-d]pyrimidin-6-yl}-3-methylidenepyrrolidin-2-one] are 6150 nM and 23.2 nM.
